Values joined by “and” are separate entries in the source; they are usually repeats but may differ in a detail not shown here. Equal values may be shown once. Read-outs that look alike come from different tables or passages of the source.
How the values were obtained:
[1] = target: recombinant human NF-kappaB-inducing Kinase (NIK/MAP3K14) (Homo sapiens, UniProt Q99558); assay: Inhibition of auto-phosphorylation of recombinant human NIK/MAP3K14 activity (AlphaScreen); type: biochemical; conditions: 25 microM ATP, averaged over all measurements on all batches
Chain of recombinant human NF-kappaB-inducing Kinase (NIK/MAP3K14) (Q99558 whole entry): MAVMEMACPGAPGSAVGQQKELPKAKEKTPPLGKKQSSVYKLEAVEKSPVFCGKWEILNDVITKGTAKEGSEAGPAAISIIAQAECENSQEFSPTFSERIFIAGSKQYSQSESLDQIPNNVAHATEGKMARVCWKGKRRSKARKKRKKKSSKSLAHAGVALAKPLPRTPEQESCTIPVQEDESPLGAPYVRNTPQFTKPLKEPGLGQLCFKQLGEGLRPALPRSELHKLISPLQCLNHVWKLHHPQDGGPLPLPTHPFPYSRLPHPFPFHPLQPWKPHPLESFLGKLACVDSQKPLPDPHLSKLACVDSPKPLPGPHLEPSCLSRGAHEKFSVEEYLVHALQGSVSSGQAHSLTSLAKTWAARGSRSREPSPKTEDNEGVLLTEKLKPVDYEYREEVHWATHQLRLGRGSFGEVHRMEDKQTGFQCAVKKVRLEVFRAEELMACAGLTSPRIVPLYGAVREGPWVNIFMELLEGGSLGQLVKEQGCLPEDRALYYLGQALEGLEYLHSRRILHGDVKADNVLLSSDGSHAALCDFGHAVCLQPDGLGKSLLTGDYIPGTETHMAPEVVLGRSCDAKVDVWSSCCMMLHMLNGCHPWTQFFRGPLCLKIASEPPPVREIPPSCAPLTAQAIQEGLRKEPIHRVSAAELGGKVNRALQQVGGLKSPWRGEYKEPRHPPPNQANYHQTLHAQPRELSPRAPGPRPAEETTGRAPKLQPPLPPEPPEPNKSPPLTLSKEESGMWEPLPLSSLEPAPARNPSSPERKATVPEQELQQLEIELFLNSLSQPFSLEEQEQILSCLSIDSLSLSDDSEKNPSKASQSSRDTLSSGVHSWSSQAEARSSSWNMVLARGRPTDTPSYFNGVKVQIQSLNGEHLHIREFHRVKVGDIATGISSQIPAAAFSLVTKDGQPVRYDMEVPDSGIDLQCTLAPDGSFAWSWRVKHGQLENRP

[2] = test system: P-IKKα levels in L363 (NIK translocated multiple myeloma) cells; assay: Effect of compounds on P-IKKα levels in L363 cells (Mesoscale sandwich immuno-assay); type: cell-based, human; conditions: 2 hr treatment, averaged values, read-out: Inhibition of pIKKα_L-363 (IC50 (nM))
Procedure, shortened: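 BAFF-stimulated (1 μg/ml stock) L363 cells preincubated 24 hr at 37° C, then treated 2 hr with compound (final 1% DMSO, 8-point 1:3 dilutions). Lysate P-IKKα measured by Mesoscale sandwich immunoassay; IC50 from sigmoidal fit of % inhibition versus log concentration.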

[3] = test system: JJN-3 (NIK translocated) multiple myeloma cells; assay: Antiproliferative activity on JJN-3 multiple myeloma cells (CellTiter-Glo); type: cell-based, human; conditions: JJN-3 (NIK translocated) cells, 96 hr treatment, averaged values, read-out: JJN-3 Proliferation inhibition (IC50 (nM))
Procedure, shortened: (§1)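 Cells plated at 15000 (JJN3) or 20000 (KMS12BM) per well and treated 96 h at 37° C, 5% CO2, final DMSO 0.3%, 9-point 1:3 dilutions. Viability by CellTiter-Glo luminescence; time-zero blank subtracted, growth expressed as percent of untreated control.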

[4] = test system: KMS12-BM (NIK WT) multiple myeloma cells; assay: Antiproliferative activity on KMS12-BM multiple myeloma cells (CellTiter-Glo); type: cell-based, human; conditions: 96 hr treatment, averaged values, read-out: KMS-12 Proliferation inhibition (IC50 (nM))
Procedure, shortened: as §1

Compound	IC50 [1]	IC50 ([2]; Homo sapiens, L-363, 2 h)	IC50 ([3]; Homo sapiens, JJN-3, 96 h)	IC50 ([4]; Homo sapiens, KMS-12-BM, 96 h)	melting point	IC50 [2]	IC50 [3]	IC50 [4]
COCCCc1ncc(C)cc1Nc1nccc(-c2cc(C#N)c3c(c2)[C@@](C)(CO)CN3)n1 [Compound 177]	5.5 nM	21.4 nM	205 nM	> 10000 nM	115 °C	–	–	–
Cc1cc(Nc2nccc(-c3cc(C#N)c4c(c3)[C@@](C)(CO)CN4)n2)c(=O)n(CC2(C)COC2)c1 [Compound 29i]	3 nM	3.7 nM	100 nM	> 10000 nM	129 °C	–	–	–
COc1ncc(C)cc1Nc1nccc(-c2cc(C#N)c3c(c2)[C@@](C)(CO)CN3)n1 [Compound 59]	2.5 nM	13.2 nM	16 nM	> 10000 nM	234 °C and 237 °C	–	–	–
CC1(COc2ncc(C#N)cc2Nc2nccc(-c3cc(C#N)c4c(c3)[C@@](C)(CO)CN4)n2)COC1 [Compound 76]	5.1 nM	26.9 nM	> 10000 nM	> 10000 nM	162 °C	–	–	–
Cc1cc(Nc2nccc(-c3cc(C#N)c4c(c3)[C@@](C)(CO)CN4)n2)c(=O)n(CC(C)N2CCOCC2)c1 (single isomer, unassigned) [Compound 22i]	3.4 nM	2.1 nM	33 nM	9120 nM	138 °C	–	–	–
COc1nc(CCC(=O)N(C)C)ccc1Nc1nccc(-c2cc(C#N)c3c(c2)[C@@](C)(CO)CN3)n1 [Compound 49]	1.6 nM	0.8 nM	35 nM	~9330 nM	195 °C	–	–	–
Cc1cc(Nc2nccc(-c3cc(C#N)c4c(c3)[C@@](C)(CO)CN4)n2)c(=O)n(CC(C)N2CCOCC2)c1 (single isomer, unassigned) [Compound 23i]	2.3 nM	–	–	–	136 °C	2.9 nM	30 nM	> 10000 nM
Cc1cc(Nc2nccc(-c3cc(C#N)c4c(c3)[C@@](C)(CO)CN4)n2)c(=O)n(Cc2nccn2C2CC2)c1 [Compound 6i]	1 nM	10 nM	275 nM	5130 nM	194 °C	–	–	–

Reference: patent US11001569B2, “6-membered heteroaromatic substituted cyanoindoline derivatives as NIK inhibitors” (Janssen Pharmaceutica NV, priority 2016, dated 2021)
